In patent EP0351685A2, “Process for preparing n15-alkyl derivatives of teicoplanin compounds” (GRUPPO LEPETIT S.p.A., priority 1988, dated 1990):
≈ marks a conversion by molar mass, not a printed value.

Columns and labels:
Test in all cases: In vitro antibacterial activity (MIC), standard agar-dilution test
Type in all cases: cell-based
S. aureus Tour = conditions: Staphylococcus aureus, inoculum about 10⁴ CFU/ml, 18-24 h at 37°C
Protocol: (§1) Isosensitest broth (Oxoid) and Todd-Hewitt broth (Difco) are used for growing staphylococci and streptococci, respectively. Broth cultures are diluted so that the final inoculum is about 10⁴ colony forming units/ml (CFU/ml).

S. faecalis ATCC 7080 = conditions: Enterococcus faecalis, ATCC7080, inoculum about 10⁴ CFU/ml, 18-24 h at 37°C
Protocol: as §1

[1] = test system: S. epidermidis ATCC 12228; conditions: Staphylococcus epidermidis, ATCC12228, inoculum about 10⁴ CFU/ml, 18-24 h at 37°C
Protocol: as §1

S. pneumoniae UC41 = conditions: Streptococcus pneumoniae, inoculum about 10⁴ CFU/ml, 18-24 h at 37°C
Protocol: as §1

S. haemolyticus L 602 = conditions: Staphylococcus haemolyticus, L602, inoculum about 10⁴ CFU/ml, 18-24 h at 37°C
Protocol: as §1

S. pyogenes C203 = conditions: Streptococcus pyogenes, inoculum about 10⁴ CFU/ml, 18-24 h at 37°C
Protocol: as §1

E. coli SKF 12140 = conditions: Escherichia coli, SKF12140, inoculum about 10⁴ CFU/ml, 18-24 h at 37°C
[2] = test system: P. vulgaris X19H ATCC 881; conditions: Proteus vulgaris, ATCC881, inoculum about 10⁴ CFU/ml, 18-24 h at 37°C
P. aeruginosa ISM = conditions: Pseudomonas aeruginosa, inoculum about 10⁴ CFU/ml, 18-24 h at 37°C
[3] = S. aureus Tour + 30% bovine serum

Row | Compound | MIC (S. aureus Tour; [3]) | MIC (S. aureus Tour; S. aureus Tour) | MIC (S. faecalis ATCC 7080) | MIC [1] | MIC (S. pneumoniae UC41) | MIC (S. haemolyticus L 602) | MIC (S. pyogenes C203) | MIC (E. coli SKF 12140) | MIC [2] | MIC (P. aeruginosa ISM)
1 | CCNC1C(=O)NC2Cc3ccc(c(Cl)c3)Oc3cc4cc(c3O)Oc3ccc(cc3Cl)C(O)C3NC(=O)C(NC(=O)C4NC(=O)C(NC2=O)c2cc(O)cc(c2)Oc2cc1ccc2O)c1ccc(O)c(c1)-c1c(O)cc(O)cc1C(C(=O)O)NC3=O (stereo not shown) [Compound 9] | 0.25 µg/mL | 0.06 µg/mL (≈ 0.0489 µM) | 0.12 µg/mL (≈ 0.0978 µM) | 0.03 µg/mL (≈ 0.0245 µM) | 0.12 µg/mL (≈ 0.0978 µM) | 0.25 µg/mL (≈ 0.204 µM) | 0.06 µg/mL (≈ 0.0489 µM) | > 128 µg/mL | > 128 µg/mL | > 128 µg/mL
2 | O=C1NC2C(=O)NC3C(=O)NC4C(=O)NC(C(=O)NC(C(=O)O)c5cc(O)cc(O)c5-c5cc4ccc5O)C(O)c4ccc(c(Cl)c4)Oc4cc3cc(c4O)Oc3ccc(cc3Cl)CC1NC(=O)C(NC1CCCC1)c1ccc(O)c(c1)Oc1cc(O)cc2c1 (stereo not shown) [Compound 11] | 0.5 µg/mL | 0.06 µg/mL (≈ 0.0474 µM) | 0.25 µg/mL (≈ 0.197 µM) | 0.03 µg/mL (≈ 0.0237 µM) | 0.06 µg/mL (≈ 0.0474 µM) |  | 0.12 µg/mL (≈ 0.0947 µM) | > 128 µg/mL | > 128 µg/mL | > 128 µg/mL
